In one assay the test system is KB. The assay is described as follows: Cytotoxicity against human KB cells. The assay is classed as functional.
For a further assay, the system named is P388. Description: Cytotoxicity against mouse P388 cells. The assay is classed as functional.
Where [1] appears, read: read-out: ED50 (the source's name).

In brackets after ≈: the same amount, converted by molar mass. Activity calls are given as the source filed them. The calls are words filed in the database; no cut-off is given here.

For `COc1c(O)cc2c3c(cc4ccccc4c13)NC2=O` [ARISTOLACTAM AII], the EC50 in the assay on KB (setting [1]) came out at 2.1 µg/mL (≈ 7.92 µM); in the assay on P388 (setting [1]) it was 3.2 µg/mL (≈ 12.1 µM).

For `COc1cc2c3c(cc4ccccc4c3c1O)NC2=O`, the outcome in the assay on KB and in the assay with P388 was inactive.

Turning to `COc1cccc2c1cc1c3c(cc4c(c32)OCO4)C(=O)N1`, the outcome in the assay with KB and in the assay with P388 was inactive.

`COc1c(O)c(OC)c2c3c(cc4ccccc42)NC(=O)c13`: the outcome in the assay on KB and with P388 was inactive.

Source of the values: ChEMBL document CHEMBL1150727, “New cytotoxic aristolactams from Pararistolochia flos-avis” (1987).
